Data taken from PubChem BioAssay (NCI).
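GI50 is the concentration that inhibits growth by half. TGI denotes the concentration required for complete inhibition of growth.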

Assays:
Test in all cases: NCI anticancer screen, dose series, 384-well format
[1] = system: MDA-MB-231 breast
[2] = system: 786-0 renal
[3] = system: A549 NSCLC
[4] = system: SNB-75 CNS
[5] = system: CCRF-CEM leukemia
[6] = system: SF-539 CNS
[7] = system: OVCAR-3 ovarian
[8] = system: HCT-15 colon
[9] = system: SNB-19 CNS
[10] = system: COLO 205 colon
[11] = system: UO-31 renal
[12] = system: OVCAR-5 ovarian
[13] = system: MDA-MB-468 breast
[14] = system: NCI-H23 lung
[15] = system: NCI/ADR-RES ovarian
[16] = system: SF-268 CNS
[17] = system: EKVX NSCLC
[18] = system: LOX IMVI melanoma
[19] = system: A498 renal
[20] = system: NCI-H226 lung
[21] = system: MALME-3M melanoma
[22] = system: OVCAR-4 ovarian
[23] = system: K-562 leukemia
[24] = system: HOP-92 NSCLC

Structure (SMILES): CC(O)[C@H](NC(=O)N[C@@H](CC(N)=O)c1nc(N2CCNCC2)no1)C(=O)O (some centres not stated)
- TGI [1]: > 100 µM
- GI50 [2]: > 100 µM
- TGI [2]: > 100 µM
- GI50 [3]: > 100 µM
- TGI [3]: > 100 µM
- GI50 [4]: > 100 µM
- TGI [4]: > 100 µM
- GI50 [5]: > 100 µM
- TGI [5]: > 100 µM
- GI50 [6]: > 100 µM
- TGI [6]: > 100 µM
- GI50 [7]: > 100 µM
- TGI [7]: > 100 µM
- GI50 [8]: > 100 µM
- TGI [8]: > 100 µM
- GI50 [9]: > 100 µM
- TGI [9]: > 100 µM
- GI50 [10]: > 100 µM
- TGI [10]: > 100 µM
- GI50 [11]: > 100 µM
- TGI [11]: > 100 µM
- GI50 [12]: > 100 µM
- TGI [12]: > 100 µM
- GI50 [13]: > 100 µM
- TGI [13]: > 100 µM
- GI50 [14]: > 100 µM
- TGI [14]: > 100 µM
- GI50 [15]: > 100 µM
- TGI [15]: > 100 µM
- GI50 [16]: > 100 µM
- TGI [16]: > 100 µM
- GI50 [17]: > 100 µM
- TGI [17]: > 100 µM
- GI50 [18]: > 100 µM
- TGI [18]: > 100 µM
- GI50 [19]: > 100 µM
- TGI [19]: > 100 µM
- GI50 [20]: > 100 µM
- TGI [20]: > 100 µM
- GI50 [21]: > 100 µM
- TGI [21]: > 100 µM
- GI50 [22]: > 100 µM
- TGI [22]: > 100 µM
- GI50 [23]: > 100 µM
- TGI [23]: > 100 µM
- GI50 [24]: > 100 µM
- TGI [24]: > 100 µM
